Measured values from ChEMBL document CHEMBL1944551, “An integrated computational workflow for efficient and quantitative modeling of renin inhibitors” (Bioorg Med Chem, 2012).

Test system: not listed separately
Assay: physchem
Details: octanol/buffer

| SMILES | logP |
| --- | --- |
| COc1ccccc1COCCCOc1ccc(N2C(=O)CNC[C@@H]2C(=O)N(C)CCc2ccccc2)cc1 | 3.9 |
| COc1ccccc1COCCCOc1ncc(N2C(=O)CNC[C@@H]2C(=O)N(C)CCc2ccccc2)cn1 | 1.89 |
| CN(CCc1ccccc1)C(=O)[C@H]1CNCC(=O)N1c1ccc(CCCOc2cccc(Cl)c2)cc1 | 4.75 |
| CN(CCc1ccccc1)C(=O)[C@H]1CNCC(=O)N1c1ccc(CCCOc2c(F)ccc(F)c2F)cc1 | 4.57 |
| Cc1cc(Cl)c(OCCOc2ccc(N3C(=O)CNC[C@@H]3C(=O)N(C)CCCc3ccccc3)cc2)c(Cl)c1 | 5.12 |
| Cc1cc(Cl)c(OCCOc2ccc(N3C(=O)CNC[C@@H]3C(=O)N(C)CCCc3ccccc3)cn2)c(Cl)c1 | 4.29 |
| CN(CCCc1ccccc1)C(=O)[C@H]1CNCC(=O)N1c1ccc(COC(=O)c2ccccc2)cc1 | 4.02 |
| CN(CCCc1ccccc1)C(=O)[C@H]1CNCC(=O)N1c1ccc(OCCCOCc2ccccc2)cc1 | 4.39 |
| COc1ccccc1COCCCOc1ccc(N2C(=O)CNC[C@@H]2C(=O)N(C)CCCc2ccccc2)cc1 | 4.35 |
| COc1ccccc1COCCCOc1ncc(N2C(=O)CNC[C@@H]2C(=O)N(C)CCCc2ccccc2)cn1 | 2.34 |
| CN(CCCc1ccccc1)C(=O)[C@H]1CNCC(=O)N1c1ccc(CCCOc2cccc(Cl)c2)cc1 | 5.19 |
| CN(CCCc1ccccc1)C(=O)[C@H]1CNCC(=O)N1c1ccc(CCCOc2c(F)ccc(F)c2F)cc1 | 5.01 |
| Cc1cc(Cl)c(OCCOc2ccc(N3C(=O)CNC[C@@H]3C(=O)N(Cc3ccc(Cl)cc3)C3CC3)cc2)c(Cl)c1 | 5.83 |
| Cc1cc(Cl)c(OCCOc2ccc(N3C(=O)CNC[C@@H]3C(=O)N(Cc3ccc(Cl)cc3)C3CC3)cn2)c(Cl)c1 | 5.01 |
| O=C(OCc1ccc(N2C(=O)CNC[C@@H]2C(=O)N(Cc2ccc(Cl)cc2)C2CC2)cc1)c1ccccc1 | 4.73 |
| O=C([C@H]1CNCC(=O)N1c1ccc(OCCCOCc2ccccc2)cc1)N(Cc1ccc(Cl)cc1)C1CC1 | 5.11 |
| COc1ccccc1COCCCOc1ccc(N2C(=O)CNC[C@@H]2C(=O)N(Cc2ccc(Cl)cc2)C2CC2)cc1 | 5.06 |
| COc1ccccc1COCCCOc1ncc(N2C(=O)CNC[C@@H]2C(=O)N(Cc2ccc(Cl)cc2)C2CC2)cn1 | 3.05 |
| O=C([C@H]1CNCC(=O)N1c1ccc(CCCOc2cccc(Cl)c2)cc1)N(Cc1ccc(Cl)cc1)C1CC1 | 5.91 |
| O=C([C@H]1CNCC(=O)N1c1ccc(CCCOc2c(F)ccc(F)c2F)cc1)N(Cc1ccc(Cl)cc1)C1CC1 | 5.73 |
| COc1c(CN(C(=O)[C@H]2CNCC(=O)N2c2ccc(OCCOc3c(Cl)cc(C)cc3Cl)cc2)C2CC2)ccnc1C | 4.22 |

| SMILES | logP |
| --- | --- |
| COc1c(CN(C(=O)[C@H]2CNCC(=O)N2c2ccc(OCCOc3c(Cl)cc(C)cc3Cl)nc2)C2CC2)ccnc1C | 3.39 |
| COc1c(CN(C(=O)[C@H]2CNCC(=O)N2c2ccc(COC(=O)c3ccccc3)cc2)C2CC2)ccnc1C | 3.12 |
| COc1c(CN(C(=O)[C@H]2CNCC(=O)N2c2ccc(OCCCOCc3ccccc3)cc2)C2CC2)ccnc1C | 3.49 |
| COc1ccccc1COCCCOc1ccc(N2C(=O)CNC[C@@H]2C(=O)N(Cc2ccnc(C)c2OC)C2CC2)cc1 | 3.45 |
| COc1ccccc1COCCCOc1ncc(N2C(=O)CNC[C@@H]2C(=O)N(Cc2ccnc(C)c2OC)C2CC2)cn1 | 1.44 |
| COc1c(CN(C(=O)[C@H]2CNCC(=O)N2c2ccc(CCCOc3cccc(Cl)c3)cc2)C2CC2)ccnc1C | 4.29 |
| COc1c(CN(C(=O)[C@H]2CNCC(=O)N2c2ccc(CCCOc3c(F)ccc(F)c3F)cc2)C2CC2)ccnc1C | 4.12 |
| Cc1cc(Cl)c(OCCOc2ccc(N3C(=O)CNC[C@@H]3C(=O)N(Cc3ccccc3Cl)C3CC3)cc2)c(Cl)c1 | 5.83 |
| Cc1cc(Cl)c(OCCOc2ccc(N3C(=O)CNC[C@@H]3C(=O)N(Cc3ccccc3Cl)C3CC3)cn2)c(Cl)c1 | 5 |
| O=C(OCc1ccc(N2C(=O)CNC[C@@H]2C(=O)N(Cc2ccccc2Cl)C2CC2)cc1)c1ccccc1 | 4.73 |
| O=C([C@H]1CNCC(=O)N1c1ccc(OCCCOCc2ccccc2)cc1)N(Cc1ccccc1Cl)C1CC1 | 5.11 |
| COc1ccccc1COCCCOc1ccc(N2C(=O)CNC[C@@H]2C(=O)N(Cc2ccccc2Cl)C2CC2)cc1 | 5.06 |
| COc1ccccc1COCCCOc1ncc(N2C(=O)CNC[C@@H]2C(=O)N(Cc2ccccc2Cl)C2CC2)cn1 | 3.05 |
| O=C([C@H]1CNCC(=O)N1c1ccc(CCCOc2cccc(Cl)c2)cc1)N(Cc1ccccc1Cl)C1CC1 | 5.9 |
| O=C([C@H]1CNCC(=O)N1c1ccc(CCCOc2c(F)ccc(F)c2F)cc1)N(Cc1ccccc1Cl)C1CC1 | 5.73 |
| O=C(c1c(Oc2ccccc2)n(-c2ccccc2)c2cc(Cl)ccc12)N1CCNCC1 | 5.71 |
| Cc1c(F)cccc1Cc1cc2c(cc1O)c(C(=O)N1CCNCC1)c(Cc1cccc(F)c1C)n2-c1ccccc1 | 7.78 |
| Cc1ccc(F)cc1Oc1c(C(=O)N2CCNCC2)c2ccc(O)cc2n1-c1ccc(F)cc1 | 5.45 |
| Cc1ccc(F)cc1Oc1c(C(=O)N2CCNCC2)c2ccccc2n1[C@H]1C=CCCC1 | 5.3 |
| Cc1cc(Cl)c(OCCOc2ccc(N3C(=O)CNC[C@@H]3C(=O)N(Cc3cccc(C)c3C)C3CC3)cc2)cc1C | 5.54 |
| Cc1cccc(CN(C(=O)[C@H]2CNCC(=O)N2c2ccc(OCCOc3c(Cl)cc(F)cc3Cl)cc2)C2CC2)c1C | 5.69 |

| SMILES | logP |
| --- | --- |
| Cc1cc(Cl)c(OCCOc2ccc(N3C(=O)CNC[C@@H]3C(=O)N(Cc3cccc(Cl)c3Cl)C3CC3)cn2)c(Cl)c1 | 5.59 |
| O=C(OCc1ccc(N2C(=O)CNC[C@@H]2C(=O)N(Cc2cccc(Cl)c2Cl)C2CC2)cc1)c1ccccc1 | 5.32 |
| O=C([C@H]1CNCC(=O)N1c1ccc(OCCCOCc2ccccc2)cc1)N(Cc1cccc(Cl)c1Cl)C1CC1 | 5.7 |
| COc1ccccc1COCCCOc1ccc(N2C(=O)CNC[C@@H]2C(=O)N(Cc2cccc(Cl)c2Cl)C2CC2)cc1 | 5.65 |
| COc1ccccc1COCCCOc1ncc(N2C(=O)CNC[C@@H]2C(=O)N(Cc2cccc(Cl)c2Cl)C2CC2)cn1 | 3.64 |
| O=C([C@H]1CNCC(=O)N1c1ccc(CCCOc2cccc(Cl)c2)cc1)N(Cc1cccc(Cl)c1Cl)C1CC1 | 6.49 |
| O=C([C@H]1CNCC(=O)N1c1ccc(CCCOc2c(F)ccc(F)c2F)cc1)N(Cc1cccc(Cl)c1Cl)C1CC1 | 6.32 |
| Cc1cc(Cl)c(OCCOc2ccc(N3C(=O)CNC[C@@H]3C(=O)NCc3ccccc3)cc2)c(Cl)c1 | 4.39 |
| Cc1cc(Cl)c(OCCOc2ccc(N3C(=O)CNC[C@@H]3C(=O)NCc3ccccc3)cn2)c(Cl)c1 | 3.56 |
| O=C(OCc1ccc(N2C(=O)CNC[C@@H]2C(=O)NCc2ccccc2)cc1)c1ccccc1 | 3.29 |
| O=C(NCc1ccccc1)[C@H]1CNCC(=O)N1c1ccc(OCCCOCc2ccccc2)cc1 | 3.67 |
| COc1ccccc1COCCCOc1ccc(N2C(=O)CNC[C@@H]2C(=O)NCc2ccccc2)cc1 | 3.62 |
| COc1ccccc1COCCCOc1ncc(N2C(=O)CNC[C@@H]2C(=O)NCc2ccccc2)cn1 | 1.61 |
| O=C(NCc1ccccc1)[C@H]1CNCC(=O)N1c1ccc(CCCOc2cccc(Cl)c2)cc1 | 4.46 |
| O=C(NCc1ccccc1)[C@H]1CNCC(=O)N1c1ccc(CCCOc2c(F)ccc(F)c2F)cc1 | 4.29 |
| Cc1cc(Cl)c(OCCOc2ccc(N3C(=O)CNC[C@@H]3C(=O)N(C)CCc3ccccc3)cc2)c(Cl)c1 | 4.68 |
| Cc1cc(Cl)c(OCCOc2ccc(N3C(=O)CNC[C@@H]3C(=O)N(C)CCc3ccccc3)cn2)c(Cl)c1 | 3.85 |
| CN(CCc1ccccc1)C(=O)[C@H]1CNCC(=O)N1c1ccc(COC(=O)c2ccccc2)cc1 | 3.58 |
| CN(CCc1ccccc1)C(=O)[C@H]1CNCC(=O)N1c1ccc(OCCCOCc2ccccc2)cc1 | 3.95 |

Same assay, conditions: octanol/water

| SMILES | logP |
| --- | --- |
| COc1ccccc1COCCCOc1ncc(N2C(=O)CNC[C@@H]2C(=O)NCc2ccccc2Cl)cn1 | 2.2 |

Target: T1, Renin (Homo sapiens, UniProt P00797)
T1 sequence (P00797 whole entry): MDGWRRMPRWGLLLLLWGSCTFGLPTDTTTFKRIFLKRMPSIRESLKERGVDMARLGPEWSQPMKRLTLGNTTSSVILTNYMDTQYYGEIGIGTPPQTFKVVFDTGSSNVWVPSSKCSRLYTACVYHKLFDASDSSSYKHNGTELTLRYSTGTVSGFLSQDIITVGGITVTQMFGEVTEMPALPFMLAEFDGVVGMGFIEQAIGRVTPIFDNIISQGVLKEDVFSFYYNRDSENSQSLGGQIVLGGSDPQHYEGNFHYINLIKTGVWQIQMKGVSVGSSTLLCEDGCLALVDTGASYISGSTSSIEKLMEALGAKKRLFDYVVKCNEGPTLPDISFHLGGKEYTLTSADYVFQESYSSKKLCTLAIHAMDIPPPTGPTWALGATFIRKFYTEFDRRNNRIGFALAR
Assay: not given
Details: not given

| SMILES | IC50 |
| --- | --- |
| O=C(c1c(Oc2ccccc2)n(-c2ccccc2)c2cc(Cl)ccc12)N1CCNCC1 | 537 nM |
| Cc1c(F)cccc1Cc1cc2c(cc1O)c(C(=O)N1CCNCC1)c(Cc1cccc(F)c1C)n2-c1ccccc1 | 427 nM |
| Cc1ccc(F)cc1Oc1c(C(=O)N2CCNCC2)c2ccc(O)cc2n1-c1ccc(F)cc1 | 15.8 nM |
| Cc1ccc(F)cc1Oc1c(C(=O)N2CCNCC2)c2ccccc2n1[C@H]1C=CCCC1 | 6.46 nM |
| Cc1cc(Cl)c(OCCOc2ccc(N3C(=O)CNC[C@@H]3C(=O)N(Cc3cccc(C)c3C)C3CC3)cc2)cc1C | 7.76 nM |
| Cc1cccc(CN(C(=O)[C@H]2CNCC(=O)N2c2ccc(OCCOc3c(Cl)cc(F)cc3Cl)cc2)C2CC2)c1C | 10.2 nM |
